Results reported in patent US11965219B2, “Process and apparatus for reduction in microbial growth in solutions of sugars extracted from waste materials” (UNIVERSITY OF LEEDS, priority 2018, dated 2024).

Tested on: microbial growth in solutions of sugar
Assay: Microbial contamination control procedure: dissolved oxygen and pH monitoring of solutions of sugars after adding a sterilisation agent
Description: The process described is based upon the Fiberight industrial scale process, modified for a 1 litre reaction vessel. The amount of organic substrate used in the process is dependent on the required total solids (TS) content of the process. Typically, TS will be between 5-25%. TS is calculated using the required reaction mass and the solids content of the organic substrate, which is typically between 10-70%. (For a reaction mass of 1 kg, with a required TS of 8% (w/w), using organic substrate with a solids content of 32% (w/w), the amount of organic substrate needed for the process is 250 g). The organic substrate is sterilised in an autoclave at 125° C. for 1 hour immediately prior to use.
The reaction vessel is sterilised prior to use by filling with […] and stirring for 1 hour. The ethanol is then drained and the heating jacket set to 50° C. prior to addition of the reaction components (water, organic substrate, and enzyme).
The organic substrate is added to a preheated reaction vessel (50° C.) in one portion followed by sterilised water (the mass of water required=total reaction mass−mass of organic substrate) and stirred at between 200-600 RPM, depending on TS (higher TS requires a higher RPM to ensure thorough mixing). […] DO readings are taken throughout the process and are typically between 3-8 mg/L if no contamination is present. […] Typically this stops after T=3 hours and maintains linear readings. If contamination occurs the DO reading can drop to 0 mg/L, which typically happens between T=5-8 hours. […]
Several sterilisation agents have been tested to determine their effectiveness in controlling microbial growth in solutions of sugar. The sterilisation agents were either introduced at T=0 or at the point that microbial growth is observed, which can be measured by the DO sensor. Typically, contamination can be said to occur when the DO reading starts to drop exponentially, eventually reaching 0 mg/L if no sterilisation agent is added. In these tests, software was used to monitor the DO readings and trigger the addition of an antimicrobial. […]

[O][Cl+][O-] [chlorine dioxide]
dissolved oxygen and pH levels / microbial growth (0.05 wt % added at T=5 hrs 45 mins, T=50 hrs 30 mins and T=73 hrs 30 mins, FIG. 7): stabilise dissolved oxygen and pH levels, thereby preventing further microbial growth | dissolved oxygen and pH levels / microbial growth (0.35 wt % added at T=8 hrs 45 mins in a single aliquot, FIG. 6): stabilise dissolved oxygen and pH levels, thereby preventing further microbial growth | pH drop (evidence of lactic acid production) (added in response to the drop in dissolved oxygen, FIGS. 6 and 7): prevented
